Where “and” joins values, the source holds several entries; their conditions need not be identical. Equal values may be shown once. Where no end group is shown, it is not given here.
Test system: CIA transgenic TNF-luc mice
Assay: collagen type II-induced arthritis in transgenic TNF-luc mice (swelling, scores, weight)
Type: in vivo, BALB/c transgenic TNF-luc mice
Parameters: key to joint index score / arthritis index score: 0–4 per paw, four paws summed, max 16; key to swelling degree of right ankle: cm, day n thickness minus initial ankle thickness; key to systemic score: systemic score points, max 8
Conditions: for left ankle swelling / right ankle swelling changes / arthritis index score / clinical score: Adalimumab 8 mg/kg, mPEG-SC20k-HM-3 20 mg/kg; for right ankle swelling changes: CIA TNF-luc mice; for right ankle swelling changes / arthritis index score / clinical score: mean ± SD; for arthritis index score / clinical score: CIA chronic model; for systemic score / joint index score / swelling degree of right ankle: 20 mg/kg
Protocol: 8 animals are randomly divided into 4 groups (n=2), a normal group, a model group, a positive drug group and a test group. On day 0, for the primary immunization, mice are hypodermically injected with 50 μL collagen emulsifier (containing CII 100 μg/ mouse) at the tail root of mice for sensitization. On day 0, initial ankle widths, initial foot palm widths and initial toe thicknesses of left and right feet of mice in each group are measured separately.
After day 21, the same dosage of emulsifier is used for second immunization at the tail root. After the symptoms such as redness and swelling of joints appear on the four toes of mice, continuous administration is performed for 15 days. The normal group and the model group are separately hypodermically injected with 0.9% normal saline (0.2 mL/20 g of body weight), once every 2 days, 7 times in total. The positive drug Adalimumab group is hypodermically injected with Adalimumab (8 mg/kg of body weight), once every 15 days, once in total. The test treatment group is hypodermically injected with mPEG-SC20k-HM-3 (20 mg/kg of body weight), once every 2 days, 7 times in total.
Every 2 days, the thickness of the ankle, the width of the foot palm and the thickness of the toes of each group of mice are measured with a vernier caliper.
Swelling degree of left ankle (cm)=swelling thickness of left ankle on day n of the experiment−measured initial thickness of left ankle.
Swelling degree of right ankle (cm)=swelling thickness of right ankle on day n of the experiment−measured initial thickness of right ankle.
The joints of the mouse paw are observed with naked eyes, and the joints are scored every 2 days from day 30. Scoring is performed in terms of level 0 to level 4, 5 levels in total. 0=no erythema or swelling; 1=slight erythema or swelling, with erythema or swelling on one of the front/hind toe joints; 2=erythema or swelling on more than one toe; 3=swelling of paw beneath the ankle or wrist joint; 4=swelling of all paws including the ankle joint. Four paws of the mice are scored separately, and the highest score is 16 points.
After the secondary inflammation appears, systemic scoring is performed every 2 days, and the scoring standards are as follows:
Hind foot: no swelling=0 point, swelling of one hind foot=1 point, swelling of two hind feet=2 points.
Front foot: no swelling=0, swelling of one front foot=1 point, swelling of two front feet=2 points.
Ears: no redness symptoms and nodules=0 point, redness symptoms or nodules of one ear=1 point, red symptoms and nodules of two ears=2 points.
Nose: no swelling=0 point, obvious swelling=1 point.
Tail: no nodule=0 point, nodules=1 point; the highest score is 8 points.

In the case of “mPEG-SC20k-Ile-Val-Arg-Arg-Ala-Asp-Arg-Ala-Ala-Val-Pro-Gly-Gly-Gly-Gly-Arg-Gly-Asp ({mPEG‑SC 20k}-IVRRADRAAVPGGGGRGD) [polypeptide III, No. 3]”, the left ankle swelling (0 d) is reported as 0.000 ± 0.000 cm, the “right ankle swelling changes” value (0 d) is reported as 0.000 ± 0.000 cm and the left ankle swelling (12 d) is reported as 0.011 ± 0.004 cm. The “right ankle swelling changes” value (12 d) was 0.005 ± 0.021 cm, the left ankle swelling (15 d) was 0.028 ± 0.023 cm and the “right ankle swelling changes” value (15 d) was 0.003 ± 0.004 cm. The left ankle swelling (18 d) was 0.016 ± 0.008 cm, the “right ankle swelling changes” value (18 d) was 0.011 ± 0.016 cm and the left ankle swelling (21 d) was 0.011 ± 0.010 cm. The “right ankle swelling changes” value (21 d) was 0.010 ± 0.011 cm, the left ankle swelling (24 d) was 0.008 ± 0.006 cm and the “right ankle swelling changes” value (24 d) was 0.007 ± 0.005 cm. The left ankle swelling (27 d) was 0.009 ± 0.004 cm, the “right ankle swelling changes” value (27 d) was 0.004 ± 0.014 cm and the left ankle swelling (30 d) was 0.003 cm. The “right ankle swelling changes” value (30 d) was 0.015 ± 0.001 cm, the arthritis index score (30 d) was 5.50 ± 0.71 and the clinical score (30 d) was 4.50 ± 0.71. The left ankle swelling (33 d) was 0.007±0.013 cm, the “right ankle swelling changes” value (33 d) was 0.018 ± 0.020 cm and the arthritis index score (33 d) was 7.00 ± 1.41. For the same substance, the clinical score (33 d) was 4.00 ± 0.00, the left ankle swelling (36 d) was 0.006 ± 0.006 cm and the “right ankle swelling changes” value (36 d) was 0.006 ± 0.008 cm. For the same substance, the arthritis index score (36 d) was 6.50 ± 0.71, the clinical score (36 d) was 4.00 ± 0.00 and the left ankle swelling (39 d) was 0.026±0.023 cm. For the same substance, the “right ankle swelling changes” value (39 d) was 0.001 ± 0.007 cm, the arthritis index score (39 d) was 6.00 ± 0.00 and the clinical score (39 d) was 4.00 ± 0.00. For the same substance, the left ankle swelling (42 d) was 0.004 ± 0.006 cm, the “right ankle swelling changes” value (42 d) was 0.017 ± 0.004 cm and the arthritis index score (42 d) was 4.50 ± 0.71. The clinical score (42 d) was 4.00 ± 0.00, the left ankle swelling (45 d) was 0.011±0.004 cm and the “right ankle swelling changes” value (45 d) was 0.000 ± 0.006 cm. The arthritis index score (45 d) was 4.50 ± 0.71, the clinical score (45 d) was 4.00 ± 0.00 and the left ankle swelling (48 d) was 0.001±0.021 cm. For the same substance, the “right ankle swelling changes” value (48 d) was 0.001 ± 0.007 cm, the arthritis index score (48 d) was 4.50 ± 0.71 and the clinical score (48 d) was 5.00 ± 0.00. For the same substance, the left ankle swelling (51 d) was 0.023±0.007 cm and 0.023 cm, the “right ankle swelling changes” value (51 d) was 0.005 ± 0.007 cm and the arthritis index score (51 d) was 4.50 ± 0.71. It also gave a clinical score (51 d) of 4.00 ± 0.00, a systemic score (day 33) of 4.00±0.00 and a joint index score (day 36) of 6.50±0.71. The “swelling degree of right ankle” value (day 36) was 0.006±0.008, the systemic score (day 36) was 4.00±0.00 and the joint index score (day 39) was 6.00±0.00. For the same substance, the “swelling degree of right ankle” value (day 39) was 0.001±0.008, the systemic score (day 39) was 4.00±0.00 and the joint index score (day 42) was 4.50±0.7. For the same substance, the “swelling degree of right ankle” value (day 42) was 0.001±0.007, the systemic score (day 42) was 4.00±0.00 and the joint index score (day 45) was 4.50±0.71. The “swelling degree of right ankle” value (day 45) was 0.000±0.006, the systemic score (day 45) was 4.00±0.00 and the joint index score (day 48) was 4.50±0.71. The “swelling degree of right ankle” value (day 48) was 0.001±0.007, the joint index score (day 51) was 4.50±0.71 and the “swelling degree of right ankle” value (day 51) was 0.005±0.007. The systemic score (day 51) was 4.00±0.00.
